Reference: patent US20230086703A1, “N-(4-(5-chloropyridin-3-yl)phenyl)-2-(2-(cyclopropanesulfonamido)pyrimidin-4-yl) butanamide derivatives and related compounds as human CTPS1 inhibitors for the treatment of proliferative diseases” (Step Pharma S.A.S., priority 2019, published 2023)

biological target: T1, human CTPS1 (Homo sapiens, UniProt P17812); assay: Human CTPS1 enzyme inhibition, ADP-Glo Max assay; type: biochemical; settings: ADP-Glo Max assay; Table 10; read-out: Human CTPS1 Enzyme Inhibition, IC50 grouped by potency range (CTPS1)
T1 construct: FLAG (with GG linker); His8 (with GG linker); purchased Proteros biostructures GmbH
T1 sequence (P17812 1-591): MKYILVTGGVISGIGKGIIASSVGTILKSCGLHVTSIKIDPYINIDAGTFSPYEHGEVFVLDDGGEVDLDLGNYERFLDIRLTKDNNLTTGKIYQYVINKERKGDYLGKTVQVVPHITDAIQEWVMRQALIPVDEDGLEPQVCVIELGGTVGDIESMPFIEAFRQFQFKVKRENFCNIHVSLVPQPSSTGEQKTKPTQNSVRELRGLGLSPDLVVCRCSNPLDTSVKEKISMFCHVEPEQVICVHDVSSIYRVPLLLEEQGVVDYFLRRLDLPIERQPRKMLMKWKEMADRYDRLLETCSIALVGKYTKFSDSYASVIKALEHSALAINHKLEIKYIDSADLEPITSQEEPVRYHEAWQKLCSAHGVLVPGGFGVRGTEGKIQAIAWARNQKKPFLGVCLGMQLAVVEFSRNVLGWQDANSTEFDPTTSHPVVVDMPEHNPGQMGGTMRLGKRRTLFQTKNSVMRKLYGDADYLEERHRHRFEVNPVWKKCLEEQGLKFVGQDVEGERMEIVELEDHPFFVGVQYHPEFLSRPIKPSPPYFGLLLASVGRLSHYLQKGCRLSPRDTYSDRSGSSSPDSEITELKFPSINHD
Experimental: The enzyme inhibitory activities of compounds invented against the target of interest were determined using the ADP-Glo™ Max assay (Promega, UK). Assays for human CTPS1 were performed in 1× assay buffer containing 50 mM Tris, 10 mM MgCl2, 0.01% Tween-20, pH to 8.0 accordingly. Finally, immediately before use, L-cysteine was added to the 1× assay buffer to a final concentration of 2 mM. All reagents are from Sigma-Aldrich unless specified otherwise.
3× human CTPS1 protein was prepared in 1× assay buffer to the final working protein concentration required for the reaction. A 2 uL volume per well of 3× human CTPS1 protein was mixed with 2 uL per well of 3× test compound (compound prepared in 1× assay buffer to an appropriate final 3× compound concentration respective to the concentration response curve designed for the compounds under test) for 10 minutes at 25° C. […] ADP-Glo™ Max reagent was added for 60 minutes (6 μL per well) and subsequently ADP-Glo™ Max development reagent was added for 60 minutes (12 uL per well) prior to signal detection in a microplate reader (EnVision® Multilabel Reader, Perkin Elmer). Following each reagent addition over the course of the assay, assay plates were pulse centrifuged for 30 seconds at 500 rpm.
In all cases, the enzyme converts ATP to ADP and the ADP-Glo™ Max reagent subsequently depletes any remaining endogenous ATP in the reaction system. The ADP-Glo™ Max detection reagent converts the ADP that has been enzymatically produced back into ATP and using ATP as a substrate together with luciferin for the enzyme luciferase, light is generated which produces a detectable luminescence. […] The percentage inhibition produced by each concentration of compound was calculated using the equation shown below: […]

Row | IC50 | Compound
1 | 1000 to 10000 nM | COc1ccc(-c2ccc(NC(=O)C(C)(C)c3csc(NS(=O)(=O)C4CC4)n3)cc2)cn1 [T46, 2-(2-(cyclopropanesulfonamido)thiazol-4-yl)-N-(4-(6-methoxypyridin-3-yl)phenyl)-2-methylpropanamide]
2 | < 100 nM | CC(C)(C(=O)Nc1ccc(-c2cncc(C#N)c2)cc1)c1csc(NS(=O)(=O)C2CC2)n1 [T47, N-(4-(5-cyanopyridin-3-yl)phenyl)-2-(2-(cyclopropanesulfonamido)thiazol-4-yl)-2-methylpropanamide]
3 | < 100 nM | CC(C)(C(=O)Nc1ccc(-c2cncc(C(F)(F)F)c2)cc1)c1csc(NS(=O)(=O)C2CC2)n1 [T48, 2-(2-(cyclopropanesulfonamido)thiazol-4-yl)-2-methyl-N-(4-(5-(trifluoromethyl)pyridin-3-yl)phenyl)propanamide]
4 | 100 to 1000 nM | CC(C)(C(=O)Nc1ccc(-c2cncc(S(C)(=O)=O)c2)cc1)c1csc(NS(=O)(=O)C2CC2)n1 [T49, 2-(2-(cyclopropanesulfonamido)thiazol-4-yl)-2-methyl-N-(4-(5-(methylsulfonyl)pyridin-3-yl)phenyl)propanamide]
5 | < 100 nM | COc1cncc(-c2ccc(NC(=O)C(C)(C)c3csc(NS(=O)(=O)C4CC4)n3)c(OC)c2)c1 [T50, 2-(2-(cyclopropanesulfonamido)thiazol-4-yl)-N-(2-methoxy-4-(5-methoxypyridin-3-yl)phenyl)-2-methylpropanamide]
6 | < 100 nM | CC(C)(C(=O)Nc1ccc(-c2cccc(C(F)(F)F)n2)cn1)c1csc(NS(=O)(=O)C2CC2)n1 [T51, 2-(2-(cyclopropanesulfonamido)thiazol-4-yl)-2-methyl-N-(6-(trifluoromethyl)-[2,3′-bipyridin]-6′-yl)propanamide]
7 | < 100 nM | CCOc1cncc(-c2ccc(NC(=O)C(C)(C)c3csc(NS(=O)(=O)C4CC4)n3)cc2)n1 [T52, 2-(2-(cyclopropanesulfonamido)thiazol-4-yl)-N-(4-(6-ethoxypyrazin-2-yl)phenyl)-2-methylpropanamide]
8 | 1000 to 10000 nM | CC(C)(C(=O)Nc1ccc(-c2cncc(N3CCOCC3)n2)cc1)c1csc(NS(=O)(=O)C2CC2)n1 [T53, 2-(2-(cyclopropanesulfonamido)thiazol-4-yl)-2-methyl-N-(4-(6-morpholinopyrazin-2-yl)phenyl)propanamide]
9 | < 100 nM | CCCOc1cncc(-c2ccc(NC(=O)C(C)(C)c3csc(NS(=O)(=O)C4CC4)n3)cc2)n1 [T55, 2-(2-(cyclopropanesulfonamido)thiazol-4-yl)-2-methyl-N-(4-(6-propoxypyrazin-2-yl)phenyl)propanamide]
10 | < 100 nM | COc1cncc(-c2ccc(NC(=O)C(C)(C)c3csc(NS(=O)(=O)C4CC4)n3)c(F)c2)c1 [T56, 2-(2-(cyclopropanesulfonamido)thiazol-4-yl)-N-(2-fluoro-4-(5-methoxypyridin-3-yl)phenyl)-2-methylpropanamide]
11 | 100 to 1000 nM | O=C(Nc1ccc(-c2ccccc2)cc1)C(F)(F)c1csc(NS(=O)(=O)C2CC2)n1 [T60, N-([1,1′-biphenyl]-4-yl)-2-(2-(cyclopropanesulfonamido)thiazol-4-yl)-2,2-difluoroacetamide]
12 | < 100 nM | COc1cncc(-c2ccc(NC(=O)Cc3csc(NS(=O)(=O)C4CCC4)n3)cc2)n1 [T61, 2-(2-(cyclobutanesulfonamido)thiazol-4-yl)-N-(4-(6-methoxypyrazin-2-yl)phenyl)acetamide]
13 | 100 to 1000 nM | CCC(C(=O)Nc1ccc(-c2cccnc2)cn1)c1csc(NS(=O)(=O)C2CC2)n1 (stereo not shown) [T62, N-([3,3′-bipyridin]-6-yl)-2-(2-(cyclopropanesulfonamido)thiazol-4-yl)butanamide]
14 | 100 to 1000 nM | CC(C)(C(=O)Nc1ccc(-c2ccccc2)cn1)c1csc(NS(=O)(=O)C2CC2)n1 [T63, 2-(2-(cyclopropanesulfonamido)thiazol-4-yl)-2-methyl-N-(5-phenylpyridin-2-yl)propanamide]
15 | 100 to 1000 nM | O=C(Cc1csc(NS(=O)(=O)C2CC2)n1)Nc1ccc(-c2cncnc2)cn1 [T64, 2-(2-(cyclopropanesulfonamido)thiazol-4-yl)-N-(5-(pyrimidin-5-yl)pyridin-2-yl)acetamide]
16 | 100 to 1000 nM | O=C(Cc1csc(NS(=O)(=O)C2CC2)n1)Nc1ccc(-c2cccnc2)cn1 [T65, N-([3,3′-bipyridin]-6-yl)-2-(2-(cyclopropanesulfonamido)thiazol-4-yl)acetamide]
17 | 100 to 1000 nM | O=C(Cc1csc(NS(=O)(=O)C2CC2)n1)Nc1ccc(-c2ccccc2)nc1 [T66, 2-(2-(cyclopropanesulfonamido)thiazol-4-yl)-N-(6-phenylpyridin-3-yl)acetamide]
18 | 100 to 1000 nM | O=C(Cc1csc(NS(=O)(=O)C2CC2)n1)Nc1ccc(-c2cccnc2)nc1 [T67, N-([2,3′-bipyridin]-5-yl)-2-(2-(cyclopropanesulfonamido)thiazol-4-yl)acetamide]
19 | 100 to 1000 nM | CC(C)(C(=O)Nc1ccc(-c2cccnn2)cc1)c1csc(NS(=O)(=O)C2CC2)n1 [T68, 2-(2-(cyclopropanesulfonamido)thiazol-4-yl)-2-methyl-N-(4-(pyridazin-3-yl)phenyl)propanamide]
20 | < 100 nM | COc1cncc(-c2ccc(NC(=O)Cc3csc(NS(=O)(=O)C4CC4)n3)cc2)n1 [T81, 2-(2-(cyclopropanesulfonamido)thiazol-4-yl)-N-(4-(6-methoxypyrazin-2-yl)phenyl)acetamide]
21 | < 100 nM | O=C(Cc1csc(NS(=O)(=O)C2CC2)n1)Nc1ccc(-c2cnccn2)cc1 [T82, 2-(2-(cyclopropanesulfonamido)thiazol-4-yl)-N-(4-(pyrazin-2-yl)phenyl)acetamide]
22 | < 100 nM | CCC(CC)(C(=O)Nc1ccc(-c2cccnc2)cc1)c1csc(NS(=O)(=O)C2CC2)n1 [T92, 2-(2-(cyclopropanesulfonamido)thiazol-4-yl)-2-ethyl-N-(4-(pyridin-3-yl)phenyl)butanamide]
23 | < 100 nM | CCC(CC)(C(=O)Nc1ccc(-c2cncc(C#N)c2)cc1)c1csc(NS(=O)(=O)C2CC2)n1 [T93, N-(4-(5-cyanopyridin-3-yl)phenyl)-2-(2-(cyclopropanesulfonamido)thiazol-4-yl)-2-ethylbutanamide]
24 | 100 to 1000 nM | CC(C)(C(=O)Nc1ccc(-c2ccccc2)cc1)c1csc(NS(=O)(=O)C2CC2)n1 [T97, N-([1,1′-biphenyl]-4-yl)-2-(2-(cyclopropanesulfonamido)thiazol-4-yl)-2-methylpropanamide]
25 | 100 to 1000 nM | Cc1ccncc1-c1ccc(NC(=O)Cc2csc(NS(=O)(=O)C3CC3)n2)cc1 [T98, 2-(2-(cyclopropanesulfonamido)thiazol-4-yl)-N-(4-(4-methylpyridin-3-yl)phenyl)acetamide]
26 | < 100 nM | Cc1cncc(-c2ccc(NC(=O)Cc3csc(NS(=O)(=O)C4CC4)n3)cc2)c1 [T99, 2-(2-(cyclopropanesulfonamido)thiazol-4-yl)-N-(4-(5-methylpyridin-3-yl)phenyl)acetamide]
27 | 1000 to 10000 nM | Cc1ccc(-c2ccc(NC(=O)Cc3csc(NS(=O)(=O)C4CC4)n3)cc2)cn1 [T101, 2-(2-(cyclopropanesulfonamido)thiazol-4-yl)-N-(4-(6-methylpyridin-3-yl)phenyl)acetamide]
28 | 100 to 1000 nM | Cc1ncccc1-c1ccc(NC(=O)C(C)(C)c2csc(NS(=O)(=O)C3CC3)n2)cc1 [T103, 2-(2-(cyclopropanesulfonamido)thiazol-4-yl)-2-methyl-N-(4-(2-methylpyridin-3-yl)phenyl)propanamide]
29 | 100 to 1000 nM | O=C(Nc1ccc(-c2cccnc2)cc1)C(=O)c1csc(NS(=O)(=O)C2CC2)n1 [T104, 2-(2-(cyclopropanesulfonamido)thiazol-4-yl)-2-oxo-N-(4-(pyridin-3-yl)phenyl)acetamide]
30 | 1000 to 10000 nM | Cc1ccc(-c2ccc(NC(=O)C(C)(C)c3csc(NS(=O)(=O)C4CC4)n3)cc2)cn1 [T105, 2-(2-(cyclopropanesulfonamido)thiazol-4-yl)-2-methyl-N-(4-(6-methylpyridin-3-yl)phenyl)propanamide]

Row | Compound | IC50
31 | CC(C)(C(=O)Nc1ccc(-c2cncc(OC3CCC3)n2)cc1)c1csc(NS(=O)(=O)C2CC2)n1 [T54, N-(4-(6-cyclobutoxypyrazin-2-yl)phenyl)-2-(2-(cyclopropanesulfonamido)thiazol-4-yl)-2-methylpropanamide] | 100 to 1000 nM
